Assay: Human HepG2 cell viability assay in 384 well format
Assay type: toxicity, cell-based
Parameters: dose 125 nL, time 70.5 hour; cytotoxicity at 70.5 h: concentration not given beside the values
Conditions: HepG2 cells, read-out: Inhibition

In order of rising cytotoxicity at 70.5 h:
1. CCOC(=O)N1CCC(NC(=O)c2cccc(C3CCCNC3)c2)CC1 (stereo unspecified)  -24.4%
2. CC(C)c1ncc2c(n1)CN(Cc1nc(Cc3ccccc3)no1)CC2  -24.3%
3. Cc1noc(C)c1CC(=O)N1CCCC(Cn2ccnc2C)C1 (stereo unspecified)  -16.8%
4. CN(C)C(=O)CN1CCN(C(=O)C2CSc3ccccc3O2)CC1 (stereo unspecified)  -16.2%
5. CCOC(=O)c1ccc(Nc2ccc(OC)c(N3CCCC3=O)c2)nc1  -14.4%
6. Cn1cnc2ccc(NC(=O)CCCn3cccn3)cc2c1=O  -13.5%
7. C[C@@H]1CN(C(=O)c2ccccc2F)C[C@]12CCN(CCN(C)C)C2=O  -13.1%
8. CSCc1noc(CNC(=O)C2CCN(C(C)C)CC2)n1  -12%
9. COC[C@]1(O)CCN(c2cc(OC)ncn2)CC1(C)C  -11.7%
10. CC(=O)NCCCSC1CCN(c2ccccc2F)C1=O (stereo unspecified)  -11.5%
11. Cc1cc(CN2CCOC(CN(C)c3cccnn3)C2)no1 (stereo unspecified)  -11.5%
12. COc1cc(N2C[C@@H]3COC[C@]3(COc3ccccn3)C2)ncn1  -11.5%
13. O=C(CC(F)(F)F)Nc1cc(F)ccc1OCC1CCCO1 (stereo unspecified)  -11.3%
14. COCCCN(C)C(=O)Cn1cccc(OC)c1=O  -10.6%
15. CN(Cc1nc(N)nc(N(C)C)n1)Cc1cccc2ccccc12  -10.6%
16. CNC(=O)c1sc2ccccc2c1CC1CCCN1Cc1cnc(C)s1 (stereo unspecified)  -10.5%
17. CCN1CCCC(c2c(-c3ccccc3)ncn2Cc2cccnc2)C1 (stereo unspecified)  -9.92%
18. Cc1cccc2c1cnn2CCC(=O)NCC(=O)N(C)C  -9.91%
19. CCC(C)(C)NC(=O)CSCc1ccc(S(=O)(=O)N(C)C)o1  -9.79%
20. CC(C)CN1CC2(CCN(C(=O)C3CNC(=O)N3)CC2)CC1=O (stereo unspecified)  -9.7%
21. Cc1noc(C)c1CN1CCC2(CCN(Cc3cccc(F)c3)CC2)C1  -9.09%
22. CCc1nc(CC)n(CC(=O)N(CC)CC)n1  -8.83%
23. COCCN1C(=O)CCC12CCN(C(=O)CNC(C)=O)CC2  -8.47%
24. CN(CCOc1ccc(F)cc1)S(=O)(=O)c1cnn(C)c1  -8.4%
25. CC[C@@H](Cn1ncc2ccccc2c1=O)NC(=O)c1ccco1  -8.28%
26. O=C(CCO)N1C[C@H]2CN(c3ccccc3)C(=O)[C@H]2C1  -8.23%
27. COc1cc(N2CCCC(c3nccn3CCN(C)C)C2)nc(N)n1 (stereo unspecified)  -8.19%
28. COc1cccc2c1OCC(C(=O)N1CCC(NS(C)(=O)=O)CC1)C2 (stereo unspecified)  -7.91%
29. Cc1cnn(CC2CCCN2C(=O)Cc2ccc3c(c2)CCO3)c1 (stereo unspecified)  -7.32%
30. Cn1ccnc1C(=O)N1CCC2(CCCN2CC2CC2)CC1  -7.19%
31. Cc1noc2ncc(C(=O)NCC3CCS(=O)(=O)C3)cc12 (stereo unspecified)  -7.14%
32. Cc1ccc(C(=O)NC2CCN(C)CC2)cc1N(C)S(C)(=O)=O  -6.98%
33. Cc1noc(C)c1CN1CC2(CCN(C(=O)c3cc[nH]n3)C2)CC1=O (stereo unspecified)  -6.88%
34. CN1CCN(Cc2ccsc2)Cc2cccnc21  -6.75%
35. Cc1nc[nH]c1-c1nnc(SCC(=O)O)n1-c1ccccc1C(F)(F)F  -6.65%
36. Cc1nn(-c2ccccc2)cc1C(=O)N1CCCC1c1cnn(C)c1 (stereo unspecified)  -6.59%
37. CCN(CC)c1ccc(NS(=O)(=O)c2cnn(C(C)C)c2)cn1  -6.47%
38. COc1ccccc1-n1nc(-c2ccco2)n(CC(=O)NC(C)C)c1=O  -6.38%
39. Cc1nn(C)c(C)c1C1CCCN1C(=O)CCc1cscn1 (stereo unspecified)  -6.08%
40. CC(=O)N1CCN(CC=C(C)C)CC1  -6.01%
41. CCCN1CC2(CCN(C)CC2)CC1C(=O)NCCn1cccn1 (stereo unspecified)  -6%
42. Cc1cncc(Oc2ccc(CO)cc2)n1  -5.95%
43. CNCCNc1nccc(-c2cn(C)nc2C)n1  -5.66%
44. CN(C)C(=O)N1CCOCC2(CCN(c3ccccn3)C2)C1 (stereo unspecified)  -5.46%
45. Cc1nsc(NC(=O)N2CCC(C(C)(C)O)CC2)n1  -5.05%
46. CCSc1ccc(NC(=O)NC2CCc3[nH]ncc3C2)cn1 (stereo unspecified)  -4.32%
47. Cn1cc(CN2CCCCC2c2ccc(-c3cccc(Cl)c3)nc2)cn1 (stereo unspecified)  -4.26%
48. CCCC(C)N(C)Cc1nnc(-c2ccc(Br)s2)o1 (stereo unspecified)  -4.09%
49. COCC(=O)N1CCCC1c1nccnc1Nc1ncccn1 (stereo unspecified)  -3.81%
50. CC1(C)CN(CC(F)(F)F)CCN1CC(N)=O  -3.8%
51. CCN(Cc1cccc(C(=O)Nc2ncc(C)s2)c1)[C@H]1COC[C@@H]1O  -3.78%
52. Cc1nocc1C(=O)N1CCCC2(CCN(c3cnn(C)c3)C2=O)C1 (stereo unspecified)  -3.71%
53. CN(C)c1ncc(I)c(C2CCCCN2C)n1 (stereo unspecified)  -3.55%
54. Cc1ccc(C(=O)N(C2CC2)C2CC(=O)NC2=O)cc1F (stereo unspecified)  -3.53%
55. O=C(NCc1cccs1)C1CCCN(c2cc(-n3cncn3)ncn2)C1 (stereo unspecified)  -3.14%
56. CCN(CC)CCn1c(=O)oc2ccccc21  -3.03%
57. CCC(O)CN1CCN(C(=O)c2ccc(N(C)C)nn2)CC1 (stereo unspecified)  -2.61%
58. N#Cc1cc(N2CCC(S(N)(=O)=O)CC2)c2ccccc2n1  -2.54%
59. CCS(=O)(=O)CC(=O)NC1(c2ccc(Cl)c(Cl)c2)CC1  -2.35%
60. Cc1nn(C)c(C)c1CCNC(C)c1ccc(-n2ccnc2C)cc1 (stereo unspecified)  -2.24%
61. CCC(CC)c1cc(CNC(=O)N2CCN(CC)CC2)on1  -2.19%
62. O=S(=O)(c1ccccc1Br)N1CCC2(CC1)OCCS2  -2.19%
63. COc1ccc(CNc2c(C)nn(C(C)C)c2C)cc1OC  -2.06%
64. CC(C)[C@H](NC(=O)c1cccc(CCC(C)(C)O)c1)C(N)=O  -2.04%
65. Cc1cc(=O)c2ccccc2n1CC1CCNC1 (stereo unspecified)  -1.77%
66. Cc1nn(C)c2cn(C(C)C(=O)NCc3cccnc3)nc12 (stereo unspecified)  -1.5%
67. c1cncc(OC[C@@]23CCC[C@@H]2CN(CC2CCOCC2)C3)c1  -1.42%
68. CCC(CC)C(=O)N(C)CC(=O)Nc1ccc(Br)cn1  -1.35%
69. O=C(c1ccn(-c2cccc(Cl)c2)n1)N1CCN(C2CC2)CC1  -0.559%
70. O=C(COc1cccnc1)N1CCOC(C(F)(F)F)C1 (stereo unspecified)  -0.535%
71. COCCN1CCN(CC2(O)CCCCC2)CC1  -0.488%
72. O=C(CC1CCCO1)Nc1cccc(N2CCN(CC3CC3)CC2)c1 (stereo unspecified)  0.099%
73. CSCC(CCO)NC(=O)Nc1cc(C)ccc1C (stereo unspecified)  0.113%
74. CCc1nc(CN2CCCN(C(=O)CCOC(C)C)CC2)cs1  0.154%
75. O=C(CSCc1ccccn1)NCC1CCN(C2CC2)C1 (stereo unspecified)  0.243%
76. CCc1cnc(N2C[C@@H]3[C@@H](C(=O)NC(C)C)CCS(=O)(=O)[C@@H]3C2)nc1  0.524%
77. CCO[C@H]1CO[C@@]2(CCCN(S(=O)(=O)c3ccccc3)C2)C1  1.01%
78. CN1CCN(C(=O)c2cnsn2)c2cc(F)ccc21  1.4%
79. c1nc(N2CCN(Cc3nnnn3C3CC3)CC2)c2sccc2n1  2.44%
80. O=C(O)Cn1nc(-c2ccccc2F)ccc1=O  2.69%
81. CN(C)C(=O)c1cn[nH]c1C1(C)CCN(c2ncccn2)CC1  2.96%
82. COCC(=O)N1CCC2(CCC2N(C)Cc2ccco2)CC1 (stereo unspecified)  3.06%
83. Cn1nc(C2CCCN(Cc3cccs3)C2)c2nccnc21 (stereo unspecified)  3.16%
84. Cc1nn(C)c(C)c1-c1ccnc(N2CCCN(CC(C)C)CC2)n1  4.01%
85. Cc1csc(N2CCN(C(=O)c3ccc(C)s3)CC2)n1  5.75%
86. c1ccc(N2CCC(c3ccncc3)CC2)cc1  5.91%
87. CSCc1noc(CN(C)C(C)c2nc(C)sc2C)n1 (stereo unspecified)  6.01%
88. c1coc(-c2nnc(CN3CCOC(Cn4cccn4)C3)o2)c1 (stereo unspecified)  6.43%
89. COCCN1CCN(Cc2ccoc2)Cc2cccnc21  6.66%
90. CC(O)CN1CCC(CN(C)Cc2ccc(C#N)cc2F)CC1 (stereo unspecified)  6.92%
91. CC(C)c1cc(C(=O)N2CCC3(CCc4ccccc4C(=O)N3)C2)no1 (stereo unspecified)  8.79%
92. CC(=O)N(Cc1ncc(C)o1)C1CCN(CCNC2CCCCC2)C1 (stereo unspecified)  9.67%
93. Cc1nc(C2CCCN(C(=O)c3cnc(C)s3)C2)no1 (stereo unspecified)  10.2%
94. COc1c(C2CCCN2C(=O)c2cnc(C)cn2)c(C)nn1C (stereo unspecified)  10.6%
95. CCc1nnnn1Cc1csc(N(C)C(C)=O)n1  11.5%
96. CCCn1cnc2c1CN(S(=O)(=O)c1ccc(F)cc1)[C@H](C(=O)OC)C2  12.5%
97. Cc1cn2nc(N3CCCC3C(=O)N3CCN(C)CC3)sc2n1 (stereo unspecified)  13.5%
98. CCOCCC(=O)Nc1cc(C)cnc1OC  14.7%
99. COc1ccccc1CN1CC[C@H]2C[C@H](C(=O)N3CCCC3)O[C@H]2C1  15.4%
100. CCN(CC)Cc1ccc(CNC(=O)C(C)(C)n2cc(Br)cn2)cc1  15.4%
101. Cc1cc(C(F)(F)F)nc(CCNc2nc(C)nc3sccc23)n1  15.7%
102. Cc1noc(CN(Cc2cccs2)C2CC2)n1  17.3%
103. CN(CC1(CO)CCOCC1)[C@@H]1c2ccccc2C2(CCNCC2)[C@H]1O  19%
104. Cc1cnc(C(=O)NCc2cccnc2OC(C)C)cn1  21%
105. Cn1cc(CNc2ccc(CCO)cc2)c(-c2ccncc2)n1  21.4%
106. O=C(c1cnc(-c2cccnc2)nc1)N1CCSCC1  21.6%
107. CN(C)C[C@@H]1CCC[C@@H]2CN(c3nccc(C(F)(F)F)n3)C[C@@H]21  23.3%
108. CSCCC(=O)N[C@H]1CC[C@H](Nc2nccc(-c3ccncc3)n2)C1  23.8%
109. CC(C)(C)c1cc(NC(=O)CN2CCCC(Cn3cncn3)C2)on1 (stereo unspecified)  25.7%
110. CC(C)(C)OC(=O)NC(C)(C)c1noc(CSc2nncs2)n1  25.7%
111. Cc1ccc(C(CCNCCCN(C)C)C2CCOC(C)(C)C2)cc1 (stereo unspecified)  30.6%
112. O=c1c(S(=O)(=O)N2CCCC2)cccn1Cc1ccc(F)cc1Cl  31.5%
113. CC(=O)N1CCN(c2cncc(C3CCNCC3)n2)CC1  34.1%
114. CCSc1ncc(CN2CCC(O)(CN3CCOCC3)C(C)(C)C2)cn1 (stereo unspecified)  38.5%
115. O=C1CC(c2ccncc2)C2(CCN(C(=O)c3cccs3)CC2)N1 (stereo unspecified)  43.8%
116. Cc1nnc(CNC(=O)C2CSCCC(=O)N2)o1 (stereo unspecified)  45.2%

Source: ChEMBL document CHEMBL3507680, “University of Dundee, Gates Library screen for HepG2 cell viability”
